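Exposure lasted 48 hours, with cells grown in 96-well plates and compounds tested at five concentrations. TGI: total growth inhibition.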
Key:
Test in all cases: DTP human tumour cell line panel, 48 h
[1] = system: HCT-116 colon
[2] = system: KM12 colon
[3] = system: MCF7 breast
[4] = system: CCRF-CEM leukemia
[5] = system: HS 578T breast
[6] = system: MDA-N
[7] = system: HL-60(TB) leukemia
[8] = system: OVCAR-8 ovarian
[9] = system: OVCAR-5 ovarian
[10] = system: HCT-15 colon
[11] = system: 786-0 renal

Measured: TGI

COc1cccc(N2C(=O)C3c4[nH]c5ccc(C)cc5c4C4CCC(C(C)(C)C)CC4C3C2=O)c1 (stereo not given)
5.85 µM: [8]
4.21 µM: [7]
7.81 µM: [9]
7.57 µM: [4]
4.75 µM: [1]
not listed: [11]
> 10 µM: all other assays above

O=c1onc2c3ccccc3ncn12
not listed: [6] | [7]
> 100 µM: all other assays above

CC(C)(C)c1cc(C2COC(c3cc(C(C)(C)C)c(O)c(C(C)(C)C)c3)CO2)cc(C(C)(C)C)c1O (stereo not given)
not listed: [7]
> 100 µM: all other assays above

CC(C)=C/C=C1/CS(=O)(=O)C=C1C
not listed: [5]
> 100 µM: all other assays above

CCOc1cc(NC(C)=O)ccc1C(=O)NN1C(=O)C(Cl)C1c1ccco1 (stereo not given)
30.8 µM: [11]
> 100 µM: [8]
49.3 µM: [1]
36.1 µM: [6]
43.4 µM: [7]
49.1 µM: [4]
36.4 µM: [9]
33.6 µM: [2]
26.8 µM: [3]
65.5 µM: [5]
46.6 µM: [10]

CC[C@@H](/C=C\CCC(=O)C[C@H](O)CCC=C(C)C)O[Si](C(C)C)(C(C)C)C(C)C
> 100 µM: all assays above

CC(C)[C@@H]1ON1C(C)c1ccccc1 (stereo not given in full)
> 100 µM: all assays above

CC(C)C1=CC23CCC4C(C)(C(=O)O)CCCC4(C)C2CC1C1C(=O)N(c2ccc(C(=O)O)cc2)C(=O)C13 (stereo not given)
not listed: [4] | [9]
> 100 µM: all other assays above

CCN(c1cccc(NC(=S)Nc2ccccc2N(CC)c2cc(-c3ccccc3)no2)c1)c1cc(-c2ccccc2)no1
> 100 µM: all assays above

CCC1(COC(NC(=O)c2ccccc2)(C(F)(F)F)C(F)(F)F)COC1
not listed: [2] | [3]
> 100 µM: all other assays above

COC(=O)C1=C(C)N2[C@H](C(=O)O)CO[C@@]2(C)[C@H](C(=O)OC)[C@H]1c1cccc([N+](=O)[O-])c1
not listed: [7]
> 100 µM: all other assays above

C=CCOC(=O)C1C2OC3(C(C(=O)OC)=C2C(=O)OC)c2ccccc2CCC13 (stereo not given)
> 10 µM: all assays above

COc1ccc(N=C2C(=Nc3ccc(OC)cc3)N(c3ccccc3)C(=S)N2N=C=C2Sc3ccccc3N2C)cc1
not listed: [4] | [7]
> 100 µM: all other assays above

Cc1ccc2c(=O)cc(-c3ccc(-c4ccccc4)s3)[nH]c2n1
> 72.6 µM: [5]
> 100 µM: all other assays above

O=C(Nc1cccc(F)c1)c1cc2ccc(O)cc2oc1=Nc1ccccc1F
25.7 µM: [3]
12.9 µM: [1]
14.1 µM: [5]
6.42 µM: [4]
13.8 µM: [10]
17.7 µM: [6]
36.1 µM: [9]
17.1 µM: [11]
22.4 µM: [2]
7.48 µM: [7]
5.85 µM: [8]

O=C(/C=C/c1csc(-c2ccccc2)n1)NCc1ccc(C(=O)NCc2ccccc2)cc1
not listed: [6] | [7]
> 100 µM: all other assays above

CCNC1=C(NC(=O)CC)C(=O)c2ccccc2C1=O
> 100 µM: all assays above

CC1=NN(C(=O)CSc2nc3ccc(I)cc3c(=O)n2Cc2ccccc2)C(=O)C1
61.3 µM: [3]
35.8 µM: [5]
52.4 µM: [10]
> 100 µM: all other assays above

Nc1nc(Cl)c(N)c(NCC2(CO)CC(CCCc3ccccc3)C2)n1 (stereo not given)
32.2 µM: [7]
> 51.7 µM: [11]
> 85.7 µM: [3]
7.16 µM: [4]
> 100 µM: all other assays above

CCN(CC)CCNCc1cc(Cl)cc2c1OCOC2
not listed: [11]
> 10 µM: all other assays above

— PubChem BioAssay (NCI)
